{
  "source": "patent US7067112B2",
  "about": "“Cephaibols: novel antiparasitics from Acremonium tubakii, process for their production, and use thereof” (Sanofi-Aventis Deutschland GmbH, priority 1999, dated 2006)",
  "key": {"[1]": {"experiment": "solubility (physicochemical properties)", "description": "(§1) The physicochemical and spectroscopic properties of the cephaibols according to the invention can be summarized as follows: […]"}, "[2]": {"experiment": "stability (physicochemical properties)", "conditions": "in neutral, mildly acidic and mildly alkaline medium", "description": "as §1"}},
  "note": "Square brackets hold non-standard residues; d marks the D form. Peptide text beside a SMILES is read from it. Hyp = O=C(O)[CH]1C[CH](O)CN1; Phe(ol) = N[CH](CO)Cc1ccccc1; Iva = CC[C](C)(N)C(=O)O; Aib = CC(C)(N)C(=O)O",
  "data": [
    {"smiles": "CCC(C)C(NC(=O)C(C)(C)NC(=O)C(CCC(N)=O)NC(=O)C(C)(CC)NC(=O)C(Cc1ccccc1)NC(C)=O)C(=O)NC(C(=O)NC(C)(C)C(=O)NC(CC(C)C)C(=O)NC(C)(C)C(=O)N1CCCC1C(=O)NC(CCC(N)=O)C(=O)NC(C)(C)C(=O)N1CC(O)CC1C(=O)NC(C)(C)C(=O)N1CCCC1C(=O)NC(Cc1ccccc1)C(=O)NC(CO)C(=O)O)C(C)O", "note": "(stereo not drawn) [Cephaibol Q, AcPhe-Iva-Gln-Aib-Ile-Thr-Aib-Leu-Aib-Pro-Gln-Aib-Hyp-Aib-Pro-Phe-Ser] (Ac-F[Iva]Q[Aib]IT[Aib]L[Aib]PQ[Aib][Hyp][Aib]PFS-OH; configuration not given here)", "values": [
      {"measurement": "solubility in polar organic solvents", "setting": "[1]", "value": "soluble"},
      {"measurement": "solubility in water", "setting": "[1]", "value": "only slightly soluble"},
      {"measurement": "stability", "setting": "[2]", "value": "stable"}
    ]},
    {"smiles": "CCC(C)C(NC(=O)C(C)(C)NC(=O)C(CCC(N)=O)NC(=O)C(C)(CC)NC(=O)C(Cc1ccccc1)NC(C)=O)C(=O)NC(C(=O)NC(C)(C)C(=O)NC(CC(C)C)C(=O)NC(C)(C)C(=O)N1CC(O)CC1C(=O)NC(CCC(N)=O)C(=O)NC(C)(C)C(=O)N1CC(O)CC1C(=O)NC(C)(C)C(=O)N1CCCC1C(=O)NC(Cc1ccccc1)C(=O)NC(CO)C(=O)O)C(C)O", "note": "(stereo not drawn) [Cephaibol P, AcPhe-Iva-Gln-Aib-Ile-Thr-Aib-Leu-Aib-Hyp-Gln-Aib-Hyp-Aib-Pro-Phe-Ser] (Ac-F[Iva]Q[Aib]IT[Aib]L[Aib][Hyp]Q[Aib][Hyp][Aib]PFS-OH; configuration not given here)", "values": [
      {"measurement": "solubility in polar organic solvents", "setting": "[1]", "value": "soluble"},
      {"measurement": "solubility in water", "setting": "[1]", "value": "only slightly soluble"},
      {"measurement": "stability", "setting": "[2]", "value": "stable"}
    ]},
    {"smiles": "CC(=O)NC(Cc1ccccc1)C(=O)NC(C)(C)C(=O)NC(C)(C)C(=O)NC(C)(C)C(=O)NC(C)(C)C(=O)NCC(=O)NC(CC(C)C)C(=O)NC(C)(C)C(=O)NC(C)(C)C(=O)N1CC(O)CC1C(=O)NC(CCC(N)=O)C(=O)NC(C)(C)C(=O)N1CC(O)CC1C(=O)NC(C)(C)C(=O)N1CCCC1C(=O)NC(CO)Cc1ccccc1", "note": "(stereo not drawn) [Cephaibol D, AcPhe-Aib-Aib-Aib-Aib-Gly-Leu-Aib-Aib-Hyp-Gln-Aib-Hyp-Aib-Pro-Phe-ol] (Ac-F[Aib][Aib][Aib][Aib]GL[Aib][Aib][Hyp]Q[Aib][Hyp][Aib]P[Phe(ol)]; configuration not given here)", "values": [
      {"measurement": "solubility in polar organic solvents", "setting": "[1]", "value": "soluble"},
      {"measurement": "solubility in water", "setting": "[1]", "value": "only slightly soluble"},
      {"measurement": "stability", "setting": "[2]", "value": "stable"}
    ]},
    {"smiles": "CCC(C)(NC(=O)C(CC(C)C)NC(=O)CNC(=O)C(C)(C)NC(=O)C(C)(C)NC(=O)C(C)(C)NC(=O)C(C)(C)NC(=O)C(Cc1ccccc1)NC(C)=O)C(=O)NC(C)(C)C(=O)N1CC(O)CC1C(=O)NC(CCC(N)=O)C(=O)NC(C)(C)C(=O)N1CC(O)CC1C(=O)NC(C)(C)C(=O)N1CCCC1C(=O)NC(CO)Cc1ccccc1", "note": "(stereo not drawn) [Cephaibol C, AcPhe-Aib-Aib-Aib-Aib-Gly-Leu-Iva-Aib-Hyp-Gln-Aib-Hyp-Aib-Pro-Phe-ol] (Ac-F[Aib][Aib][Aib][Aib]GL[Iva][Aib][Hyp]Q[Aib][Hyp][Aib]P[Phe(ol)]; configuration not given here)", "values": [
      {"measurement": "solubility in polar organic solvents", "setting": "[1]", "value": "soluble"},
      {"measurement": "solubility in water", "setting": "[1]", "value": "only slightly soluble"},
      {"measurement": "stability", "setting": "[2]", "value": "stable"}
    ]},
    {"smiles": "CCC(C)(NC(=O)C(CCC(N)=O)NC(=O)C1CC(O)CN1C(=O)C(C)(C)NC(=O)C(C)(C)NC(=O)C(CC(C)C)NC(=O)CNC(=O)C(C)(C)NC(=O)C(C)(C)NC(=O)C(C)(C)NC(=O)C(C)(C)NC(=O)C(Cc1ccccc1)NC(C)=O)C(=O)N1CC(O)CC1C(=O)NC(C)(C)C(=O)N1CCCC1C(=O)NC(CO)Cc1ccccc1", "note": "(stereo not drawn) [Cephaibol E, AcPhe-Aib-Aib-Aib-Aib-Gly-Leu-Aib-Aib-Hyp-Gln-Iva-Hyp-Aib-Pro-Phe-ol] (Ac-F[Aib][Aib][Aib][Aib]GL[Aib][Aib][Hyp]Q[Iva][Hyp][Aib]P[Phe(ol)]; configuration not given here)", "values": [
      {"measurement": "solubility in polar organic solvents", "setting": "[1]", "value": "soluble"},
      {"measurement": "solubility in water", "setting": "[1]", "value": "only slightly soluble"},
      {"measurement": "stability", "setting": "[2]", "value": "stable"}
    ]},
    {"smiles": "CCC(C)(NC(=O)C(CC(C)C)NC(=O)C(C)NC(=O)C(C)(C)NC(=O)C(C)(C)NC(=O)C(C)(C)NC(=O)C(C)(C)NC(=O)C(Cc1ccccc1)NC(C)=O)C(=O)NC(C)(C)C(=O)N1CC(O)CC1C(=O)NC(CCC(N)=O)C(=O)NC(C)(CC)C(=O)N1CC(O)CC1C(=O)NC(C)(C)C(=O)N1CCCC1C(=O)NC(CO)Cc1ccccc1", "note": "(stereo not drawn) [Cephaibol A1, AcPhe-Aib-Aib-Aib-Aib-Ala-Leu-Iva-Aib-Hyp-Gln-Iva-Hyp-Aib-Pro-Phe-ol] (Ac-F[Aib][Aib][Aib][Aib]AL[Iva][Aib][Hyp]Q[Iva][Hyp][Aib]P[Phe(ol)]; configuration not given here)", "values": [
      {"measurement": "solubility in polar organic solvents", "setting": "[1]", "value": "soluble"},
      {"measurement": "solubility in water", "setting": "[1]", "value": "only slightly soluble"},
      {"measurement": "stability", "setting": "[2]", "value": "stable"}
    ]},
    {"smiles": "CCC(C)(NC(=O)C(CC(C)C)NC(=O)CNC(=O)C(C)(CC)NC(=O)C(C)(C)NC(=O)C(C)(C)NC(=O)C(C)(C)NC(=O)C(Cc1ccccc1)NC(C)=O)C(=O)NC(C)(C)C(=O)N1CC(O)CC1C(=O)NC(CCC(N)=O)C(=O)NC(C)(CC)C(=O)N1CC(O)CC1C(=O)NC(C)(C)C(=O)N1CCCC1C(=O)NC(CO)Cc1ccccc1", "note": "(stereo not drawn) [Cephaibol B, AcPhe-Aib-Aib-Aib-Iva-Gly-Leu-Iva-Aib-Hyp-Gln-Iva-Hyp-Aib-Pro-Phe-ol] (Ac-F[Aib][Aib][Aib][Iva]GL[Iva][Aib][Hyp]Q[Iva][Hyp][Aib]P[Phe(ol)]; configuration not given here)", "values": [
      {"measurement": "solubility in polar organic solvents", "setting": "[1]", "value": "soluble"},
      {"measurement": "solubility in water", "setting": "[1]", "value": "only slightly soluble"},
      {"measurement": "stability", "setting": "[2]", "value": "stable"}
    ]}
  ]
}
